Patent US20030005484A1, “Microbiocidal and pesticidal aromatic aldehydes” (ProGuard, Inc., priority 1994, published 2003)

Experiments:
[1] = system: black bean aphid, Tetranychus urticae; assay: aphid Petri dish bioassay; conditions: for mortality: three hours contact
Protocol: (§1) Activity of cinnamic aldehyde and/or coniferyl aldehyde against black bean aphid, Tetranychus urticae, and silverleaf white fly, Bemisia argentifolii was determined as follows:
Petri dishes (60 mm) were treated with cinnamic aldehyde at 10-25,000 ppm in 2% Tween 80 and 6% NaHCO3 dissolved in water, and the dishes allowed to air dry. Twenty adult aphids (Tetranychus urticae) were put in each dish, (replicate 10 times). The mortality after three hours in contact with a treated plate was compared to that of aphids in petri dishes treated only with diluent. Malathion (250 ppm) was used as a positive control.

[2] = system: Silverleaf Whitefly (Bemisia argentifolii); assay: silverleaf whitefly 1st and 2nd instars on poinsettia; assay type: in vivo; conditions: 0.5% cinnamic aldehyde and […] Tween 20, 48 hours
Protocol: Clip cages were set on poinsettia plants leaves to capture white fly adults which then were allowed to oviposit for 48 hours. Four plants per treatment or control were put into an environmental chamber and the eggs allowed to incubate for 5 days until a majority of the eggs had hatched to first and second instar. Three treatments at 0.5% cinnamic aldehyde and 0.25% Tween 20 (T1, T2, T3) and three control treatments of 0.25% Tween 20 only (C1, C2, C3) were sprayed to run off on each plant. Mortality was recorded after 48 hours (see Table 23).

Roll Lesion nematode = assay: vineyard grape vines, nematode infestation: roll lesion; assay type: in vivo
Protocol: (§2) The subject formulations were tested for ability to reduce grape vine infestation by root knot, ring, stubby root, and roll lesion nematodes. Grape vines (Harmony rootstock) in a vinyard were treated with 1000 ppm or 3000 ppm cinnamaldehyde in 2% Tween 80, the commercial anti-nematode agent Nemacur, or a formulation blank. The extent of nematode infestation was determined at the time of treatment and at 30 and 60 days post-treatment.

grape phylloxera = grape phylloxera adult and nymphal mortality, root dip; assay type: in vivo, Daktulosphaira vitifoliae; conditions: for mortality of adults and nymphs: root dip, 5 days
Protocol: Approximately twenty four eggs of phylloxera were allowed to develop for up to 30 days on standard excised grape roots. At around 30 days, some of the insects were nymphs while others were adults. New eggs were removed during the process. Insect infected roots were submerged into a test formula for 6 seconds then set aside to dry in the air. The percentage of live insects, as defined by growth, oviposition or limb movement, was determined after 5 days. An insect was considered dead if it abandoned its feed site.
In an initial test, doses of 20,000 ppm cinnamic aldehyde in water (i.e., 2% cinnamic aldehyde) with various additives were evaluated. Cinnamic aldehyde without any additives produced 83.3% mortality. With-1% Tween 80 added, 91.7% mortality was seen. With 6% NaHCO3 added to a solution of 2% cinnamic aldehyde, 91.7% mortality was seen. With 1% Tween 80 and 6% NaHCO3 added to a solution of 2% cinnamic aldehyde, 100% mortality was seen. Water with no additives produced no mortality, while a positive control solution of 250 ppm malathion in water gave 100% mortality.
For nymph and adult tests, eggs were placed on excised root pieces similar to those used for rearing purposes and these were sealed in Petri dishes and held at 24° C. for 18-25 days to allow insects to hatch, initiate feeding sites and develop. At about this time about half the population was in the adult stage. Prior to testing, the population on each root was determined as well as the developmental stage of each insect. Eggs were removed. These root pieces were then dipped for 5 sec into test solutions and allowed to air dry before they were returned to Petri dishes, sealed and placed back in the temperature chamber at 24° C. Mortality was determined after 5 days. Insects were considered dead if they appeared black or desiccated and if they had not developed since the pre-treatment reading and had laid no or few new eggs.

Ring Nematode = assay: vineyard grape vines, nematode infestation: ring; assay type: in vivo
Protocol: as §2

[3] = system: silverleaf white fly, Bemisia argentifolii; assay: silver leaf white fly Petri dish bioassay
Protocol: as §1
Petri dishes (60 mm) were treated with cinnamic aldehyde at 10-25,000 ppm in 2% Tween 80 and 6% NaHCO3 dissolved in water, and allowed to air dry. Twenty adult silver leaf white fly were put in each dish, (replicate 10 times). The mortality after three hours in contact with a treated plate, was compared to that of silver leaf white fly in petri dishes treated only with diluent. Malathion at 250 ppm was used as a positive control.

Spider Mites = assay: spider mites on cabernet sauvignon grapevines, 0.3% spray; assay type: in vivo; conditions: 0.3% CNMA; two days after spraying; untreated 17.9
Protocol: The effect of 0.3% cinnamic aldehyde on leafhoppers and spider mites on grapevine leaves was examined. 30% cinnamic aldehyde was diluted 1:100 in water and sprayed one time on a 1 acre block of cabernet sauvignon grapevines in a vineyard using a 300 gal Pul-Blast rsprayer at 160 psi. 120 gal. were applied to one acre of vineyard. As a control, a one-acre block remained untreated. Blocks were pseudo-replicated so as to obtain an indication of the reliability of the treatment. Prior to treatment mites on leaves were pre-counted using a dissecting microscope. Leafhopper numbers also were determined in the field prior to treatment. Two days after spraying, two leaves, one from the basal portion and one from the proximal portion of the vine were examined from 16 vines from 2 rows for each treatment. Leaf samples also were taken from both sides of the vines (north and south) to include variation due to vine exposure. […]

[4] = system: melon aphid (Aphis gossypli Glover); assay: melon aphid bioassay with Storax formulations; assay type: in vivo, Aphis gossypii; conditions: previous bioassays; plants sprayed to run-off at 1,000 ppm
Protocol: The purpose of this study was to determine the effect of STORAX incorporated into various formulations to evaluate its potential use as a synergist. Initial bioassays were conducted using STORAX at 0.6%, 1.0%, 2.0% with Tween 80 (1%) only. A second bioassay was conducted to evaluate the efficacy of STORAX (at 0.6%) alone and STORAX (at 0.6%) plus cinnamic aldehyde (at 0.1%) or alpha hexyl cinnamaldehyde (at 0.1%). […] STORAX combined with cinnamic aldehyde or α-hexyl cinnamic aldehyde reduced the time course of lethality and increases mortality. Moreover, the cinnamic aldehyde-STORAX formulation approaches the lethal time (LT) required at 2 h for kill of certain virus transmitting pests (e.g., brown citrus aphid).

[5] = 2500 ppm and above in 2% Tween 80 and 6% NaHCO3, three hours contact with treated dish
[6] = 1000 ppm in 2% Tween 80, 30 days post-treatment
[7] = 1000 ppm in 2% Tween 80, 60 days post-treatment
[8] = 1000 ppm in 2% Tween 80, day 0 (time of treatment)
[9] = 3000 ppm in 2% Tween 80, 30 days post-treatment
[10] = 3000 ppm in 2% Tween 80, day 0 (time of treatment)

Q: Which mortality ([1]; 10 ppm in 2% Tween 80 and 6% NaHCO3) does the source give for `O=C/C=C/c1ccccc1` [cinnamic aldehyde] here?
A: Its mortality is 25%.

Q: And the mortality ([1]; 100 ppm in 2% Tween 80 and 6% NaHCO3)?
A: Its mortality is 50%.

Q: What about the aphids killed [1, 5] of the same compound?
A: The aphids killed was 100%.

Q: What about the “Alive, total of T1-T3” value [2] of the same compound?
A: Its value is 35.

Q: What about the “Dead, total of T1-T3” value [2] of the same compound?
A: The value was 363.

Q: And the “Mortality (%)” value ([2]; T1-T3 combined, Tween 20 control 9%)?
A: Its value is 91%.

Q: And the “Roll Lesion, nematodes per gram root” value (Roll Lesion nematode; [6])?
A: The value was 2.7 per gram root.

Q: And the “Roll Lesion, nematodes per gram root” value (Roll Lesion nematode; [7])?
A: The value was 0 per gram root.

Q: What about the “Roll Lesion, nematodes per gram root” value (Roll Lesion nematode; [8]) of the same compound?
A: The value was 2.9 per gram root.

Q: And the “Roll Lesion, nematodes per gram root” value (Roll Lesion nematode; [9])?
A: Its value is 0.56 per gram root.

Q: And the “Roll Lesion, nematodes per gram root” value (Roll Lesion nematode; [10])?
A: Its value is 1.0 per gram root.

Q: What about the “mortality of adults and nymphs” value (grape phylloxera; 2% cinnamic aldehyde with 1% Tween 80) of the same compound?
A: Its value is 91.7%.

Q: What about the “mortality of adults and nymphs” value (grape phylloxera; 2% cinnamic aldehyde with 1% Tween 80 and 6% NaHCO3) of the same compound?
A: The value was 100%.

Q: And the “mortality of adults and nymphs” value (grape phylloxera; 2% cinnamic aldehyde with 6% NaHCO3)?
A: Its value is 91.7%.

Q: And the mortality at 20000 ppm (grape phylloxera; Daktulosphaira vitifoliae, 120 h, 2% cinnamic aldehyde (20,000 ppm) in water, no additives, roots submerged 6 seconds, read after 5 days, read-out: mortality of adults and nymphs)?
A: The mortality at 20000 ppm was 83.3%.

Q: And the “Ring Nematode, nematodes per 250 cc soil” value (Ring Nematode; [6])?
A: The value was 171.2 per 250 cc soil.

Q: And the “Ring Nematode, nematodes per 250 cc soil” value (Ring Nematode; [7])?
A: Its value is 1168 per 250 cc soil.

Q: And the “Ring Nematode, nematodes per 250 cc soil” value (Ring Nematode; [8])?
A: The value was 47.2 per 250 cc soil.

Q: What about the “Ring Nematode, nematodes per 250 cc soil” value (Ring Nematode; [9]) of the same compound?
A: Its value is 322.8 per 250 cc soil.

Q: And the “Ring Nematode, nematodes per 250 cc soil” value (Ring Nematode; 3000 ppm in 2% Tween 80, 60 days post-treatment)?
A: Its value is 1127 per 250 cc soil.

Q: What about the “Ring Nematode, nematodes per 250 cc soil” value (Ring Nematode; [10]) of the same compound?
A: The value was 540.2 per 250 cc soil.

Q: What about the “silver leaf white fly killed” value [3, 5] of the same compound?
A: The value was 100%.

Q: What about the mortality at 10 ppm ([3]; Bemisia argentifolii, 3 h) of the same compound?
A: Its mortality at 10 ppm is 25%.

Q: And the mortality at 100 ppm ([3]; Bemisia argentifolii, 3 h)?
A: Its mortality at 100 ppm is 50%.

Q: And the “Silver Leaf White Fly Mortality (Percent)” value ([3]; Cinnamic Aldehyde (20 g) with NaHCO3)?
A: The value was 87.3%.

Q: And the “Silver Leaf White Fly Mortality (Percent)” value ([3]; Cinnamic Aldehyde (20 g) with T80(2%) + NaHCO3 (6%))?
A: The value was 100%.

Q: And the “Silver Leaf White Fly Mortality (Percent)” value ([3]; Cinnamic Aldehyde (20 g) with T80 (10 g))?
A: The value was 72.1%.

Q: And the “Silver Leaf White Fly Mortality (Percent)” value ([3]; Cinnamic Aldehyde (20 g), no additive)?
A: The value was 68.6%.

Q: And the MITES/LEAF (Spider Mites)?
A: Its MITES/LEAF is 3.27.

Q: What about the “time at which an LD50 was observed” value [4] of the same compound?
A: Its value is 2 h.

Q: And the “time at which an LD75 was observed” value [4]?
A: Its value is 24 h.
